# Laboratory results from publication PMC7354438 (Viruses, 2020).
# Structures can show the parent of a compound that is named as a salt.
# Test system: hCoV-19/Norway/Trondheim-E9/2020
# Assay: Drug test: viability of SARS-CoV-2-infected Vero-E6 cells (CellTiter-Glo)
# Assay type: cell-based
# Parameters: AUC: unit not given beside the values
# Conditions: 72 h
row,Compound,AUC
1,CCCCCCCCCCNCCN[C@@]1(C)C[C@H](O[C@H]2[C@H](Oc3c4cc5cc3Oc3ccc(cc3Cl)[C@@H](O)[C@@H](NC(=O)[C@@H](CC(C)C)NC)C(=O)N[C@@H](CC(N)=O)C(=O)N[C@H]5C(=O)N[C@H]3C(=O)N[C@H](C(=O)N[C@H](C(=O)O)c5cc(O)c(CNCP(=O)(O)O)c(O)c5-c5cc3ccc5O)[C@H](O)c3ccc(c(Cl)c3)O4)O[C@H](CO)[C@@H](O)[C@@H]2O)O[C@@H](C)[C@H]1O [Telavancin],"139,65"
2,Teicoplanin,"145,39"
3,C[C@H]1O[C@H](O[C@H]2[C@H](O)[C@@H](O)[C@@H](O)[C@H](O)[C@@H]2O)[C@@H](N)C[C@@H]1NC(=N)C(=O)O [Kasugamycin],"88,55"
4,CCN(CC)C[C@@H](O)CNc1ccc(NC[C@H]2CO2)c2c1C(=O)c1ccccc1C2=O [BDA-366],"174,3"
5,Oc1c(Cl)cc(Cl)c(Cl)c1Cc1c(O)c(Cl)cc(Cl)c1Cl [Hexachlorophene],"122,15"
6,"NCCCC(N)(C(=O)O)C(F)F (stereo not shown) [DFMO (Difluoromethylomithine), Difluoromethylomithine]","142,66"
7,Cc1cc(O)c2c(c1)C(=O)c1cc(O)cc(O)c1C2=O [Emodin],"170,24"
8,COc1ccc(C[C@H]2NC[C@H](O)[C@H]2OC(C)=O)cc1 [Anisomycin],"169,33"

# Same assay, conditions: area under the dose-response curve of viability of virus-infected Vero-E6 cells; moi 0.1; 72 h; 7 concentrations; decimal comma
row,Compound,AUC
1,N=C(N)NC(=O)c1nc(Cl)c(N)nc1N [Amiloride (EIPA)],"182,56"
2,CNC(=C[N+](=O)[O-])NCCSCc1ccc(CN(C)C)o1 [Ranitidine],"94,08"
3,Cc1cccc(C)c1OCC(=O)N[C@@H](Cc1ccccc1)[C@@H](O)C[C@H](Cc1ccccc1)NC(=O)[C@H](C(C)C)N1CCCNC1=O [Lopinavir],"157,36"
4,COc1ccc2c(c1)c(CC(=O)O)c(C)n2C(=O)c1ccc(Cl)cc1 [Indomethacin],"104,51"
5,O=C1[C@H](CC[C@H](O)c2ccc(F)cc2)[C@@H](c2ccc(O)cc2)N1c1ccc(F)cc1 [Ezetimibe],"138,39"
6,CC[C@H]1OC(=O)[C@H](C)[C@@H](O[C@H]2C[C@@](C)(OC)[C@@H](O)[C@H](C)O2)[C@H](C)[C@@H](O[C@@H]2O[C@H](C)C[C@H](N(C)C)[C@H]2O)[C@](C)(O)C[C@@H](C)CN(C)[C@H](C)[C@@H](O)[C@]1(C)O [Azithromycin],"119,42"
7,CN1[C@@H]2CC[C@H]1C[C@@H](OC(c1ccccc1)c1ccccc1)C2 [Benzatropine],"208,11"
8,Cc1cc(CCCOc2c(C)cc(-c3noc(C(F)(F)F)n3)cc2C)on1 [Pleconaril],"141,75"
9,O=C(O)[C@H]1C2CCC(CC2)[C@@H]1Nc1nc(-c2c[nH]c3ncc(F)cc23)ncc1F [Pimodivir],"126,91"
10,Cn1c(=O)c2c(ncn2C)n(C)c1=O [Caffeine],"147,28"
11,COC(=O)C1=C(C)NC(C)=C(C(=O)OCCN2CCN(C(c3ccccc3)c3ccccc3)CC2)C1c1cccc([N+](=O)[O-])c1 (stereo not shown) [Manidipine],133
12,Cc1oncc1C(=O)Nc1ccc(C(F)(F)F)cc1 [Leflunomide],"47,95"
13,O=c1c(-c2ccc(O)cc2)coc2cc(O[C@@H]3O[C@H](CO)[C@@H](O)[C@H](O)[C@H]3O)cc(O)c12 [Genistin],"54,1"
14,CC(C)(C)c1cnc(CSc2cnc(NC(=O)C3CCNCC3)s2)o1 [SNS-032],"96,25"
15,CN(C)C(=O)COC(=O)Cc1ccc(OC(=O)c2ccc(NC(=N)N)cc2)cc1 [Camostat],"88,41"
16,CNC(=O)c1cc(Oc2ccc(NC(=O)Nc3ccc(Cl)c(C(F)(F)F)c3)c(F)c2)ccn1 [Regorafenib],"24,12"
17,"CC1=C(/C=C/C(C)=C/C=C/C(C)=C/C(=O)Nc2ccc(O)cc2)C(C)(C)CCC1 [Fenretinide (4-HPR), Fenretinide]","137,9"
18,NC(=O)c1ncn([C@@H]2O[C@H](CO)[C@@H](O)[C@H]2O)n1 [Ribavirin],"134,26"
19,CC(=O)N[C@@H](CS)C(=O)O [Acetylcysteine],"43,47"
20,"CCN(CC)CCOc1ccc2c(c1)C(=O)c1cc(OCCN(CC)CC)ccc1-2 [Tilorone (dihydrochloride), Tilorone]","83,72"
